Data published in the supplement of paper PMC10307832.

Tests used:
Test in all cases: relative viability (nuclei count vs DMSO), 5 days (fraction); higher = more cells survive
PAC-1 + Pictilisib = compound: C=CCc1cccc(/C=N/NC(=O)CN2CCN(Cc3ccccc3)CC2)c1O [PAC-1] + CS(=O)(=O)N1CCN(Cc2cc3nc(-c4cccc5[nH]ncc45)nc(N4CCOCC4)c3s2)CC1 [Pictilisib] (partner 1 µM)
Method in brief: (§1)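 Nuclei were stained with Hoechst during a one-step fixation (final 0.05% Triton X-100, 1% formaldehyde, 1 ug/ml Hoechst) carried out 5 days after dosing, then counted on 4× images. The cells, lung cancer lines in 1536-well plates, had been dosed by pin tool the day after seeding with one drug alone or a fixed anchor-drug dose plus five library-drug doses (not always all listed) in √10 steps. Relative viability is the nuclei count in treated wells divided by that in vehicle wells, and each value is the median of duplicate plates.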

BMX-IN-1 + OSI-027 = compound: C=CC(=O)Nc1cc(-n2c(=O)ccc3cnc4ccc(-c5ccc(NS(C)(=O)=O)cc5)cc4c32)ccc1C [BMX-IN-1] + COc1cccc2cc(-c3nc([C@H]4CC[C@H](C(=O)O)CC4)n4ncnc(N)c34)[nH]c12 [OSI-027] (partner 0.5 µM)
Method in brief: as §1

Ibrutinib + Tozasertib = compound: C=CC(=O)N1CCC[C@@H](n2nc(-c3ccc(Oc4ccccc4)cc3)c3c(N)ncnc32)C1 [Ibrutinib] + Cc1cc(Nc2cc(N3CCN(C)CC3)nc(Sc3ccc(NC(=O)C4CC4)cc3)n2)n[nH]1 [Tozasertib] (partner 0.1 µM)
Method in brief: as §1

PAC-1 + Vorinostat = compound: C=CCc1cccc(/C=N/NC(=O)CN2CCN(Cc3ccccc3)CC2)c1O [PAC-1] + O=C(CCCCCCC(=O)Nc1ccccc1)NO [Vorinostat] (partner 1 µM)
Method in brief: as §1

Cell Line | relative viability (PAC-1 + Pictilisib; first compound 0.02 µM) | relative viability (PAC-1 + Pictilisib; first compound 0.06325 µM) | relative viability (PAC-1 + Pictilisib; first compound 0.2 µM) | relative viability (PAC-1 + Pictilisib; first compound 2 µM) | relative viability (BMX-IN-1 + OSI-027; first compound 0.02 µM) | relative viability (BMX-IN-1 + OSI-027; first compound 0.2 µM) | relative viability (BMX-IN-1 + OSI-027; first compound 0.6325 µM) | relative viability (BMX-IN-1 + OSI-027; first compound 2 µM) | relative viability (Ibrutinib + Tozasertib; first compound 0.005 µM) | relative viability (Ibrutinib + Tozasertib; first compound 0.01581 µM) | relative viability (Ibrutinib + Tozasertib; first compound 0.05 µM) | relative viability (Ibrutinib + Tozasertib; first compound 0.1581 µM) | relative viability (Ibrutinib + Tozasertib; first compound 0.5 µM) | relative viability (PAC-1 + Vorinostat; first compound 0.02 µM) | relative viability (PAC-1 + Vorinostat; first compound 0.06325 µM) | relative viability (PAC-1 + Vorinostat; first compound 0.2 µM) | relative viability (PAC-1 + Vorinostat; first compound 2 µM)
RERF-LC-KJ | 0.553 | 0.471 | 0.423 | 0.552 | 0.626 | 0.612 | 0.587 | 0.278 | 0.59 | 0.5 | 0.467 | 0.537 | 0.544 | 0.715 | 0.67 | 0.475 | 0.711
HCC-15 | 0.683 | 0.731 | 0.743 | 0.783 | 0.801 | 0.708 | 0.698 | 0.583 | 0.464 | 0.413 | 0.563 | 0.396 | 0.357 | 0.782 | 0.861 | 0.769 | 0.825
NCI-H1755 | 0.445 | 0.434 | 0.391 | 0.438 | 0.685 | 0.787 | 0.765 | 0.721 | 0.628 | 0.574 | 0.695 | 0.613 | 0.528 | 0.777 | 0.787 | 0.774 | 0.718
NCI-H441 | 0.447 | 0.583 | 0.552 | 0.377 | 0.708 | 0.753 | 0.649 | 0.68 | 0.596 | 0.64 | 0.801 | 0.73 | 0.809 | 0.87 | 1.05 | 0.82 | 0.761
HOP-62 | 0.653 | 0.573 | 0.689 | 0.726 | 1.01 | 1.16 | 1.03 | 0.817 | 0.447 | 0.408 | 0.467 | 0.403 | 0.473 | 0.596 | 0.518 | 0.473 | 0.655
ABC-1 | 0.624 | 0.665 | 0.545 | 0.74 | 0.504 | 0.491 | 0.655 | 0.412 | 0.151 | 0.149 | 0.159 | 0.198 | 0.187 | 1.06 | 1 | 1.44 | 1.09
UMC-11 | 0.843 | 0.783 | 0.754 | 0.815 | 0.571 | 0.578 | 0.491 | 0.488 | 0.194 | 0.203 | 0.203 | 0.203 | 0.188 | 0.36 | 0.41 | 0.349 | 0.513
BEN | 0.557 | 0.534 | 0.536 | 0.51 | 0.319 | 0.282 | 0.294 | 0.31 | – | 0.459 | 0.471 | 0.561 | 0.536 | 0.558 | 0.58 | 0.552 | 0.601
ChaGo-K-1 | 0.817 | 0.818 | 0.925 | 0.627 | 0.731 | 0.635 | 0.624 | 0.786 | 0.228 | 0.218 | 0.212 | 0.232 | 0.22 | 0.754 | 0.773 | 0.65 | 0.829
NCI-H520 | 0.266 | 0.303 | 0.256 | 0.35 | 0.253 | 0.238 | 0.279 | 0.282 | 0.428 | 0.341 | 0.427 | 0.381 | 0.39 | 0.57 | 0.722 | 0.687 | 0.678
SK-LU-1 | 0.557 | 0.607 | 0.457 | 0.512 | 0.345 | 0.316 | 0.42 | 0.298 | 0.363 | 0.252 | 0.399 | 0.347 | 0.33 | 0.742 | 0.846 | 0.757 | 0.855
NCI-H2087 | 0.852 | 0.901 | 0.782 | 0.683 | 0.624 | 0.712 | 0.589 | 0.485 | 0.303 | 0.206 | 0.262 | – | 0.233 | 0.678 | 0.665 | 0.722 | 0.858
COR-L 105 | 0.397 | 0.397 | 0.167 | 0.411 | 0.817 | 0.668 | 0.814 | 0.586 | 0.35 | 0.337 | 0.339 | 0.373 | 0.303 | 1.08 | 0.817 | 0.817 | 0.801
NCI-H1395 | 0.603 | 0.677 | 0.61 | 0.602 | 0.645 | 0.64 | 0.647 | 0.637 | 0.77 | 0.688 | 0.782 | 0.74 | 0.776 | 0.704 | 0.747 | 0.784 | 0.623
EKVX | 0.453 | 0.415 | 0.374 | 0.488 | 0.848 | 0.689 | 0.783 | 0.663 | 0.427 | 0.332 | 0.4 | 0.426 | 0.269 | 0.768 | 0.776 | 0.793 | 0.69
NCI-H23 | 0.365 | 0.461 | 0.414 | 0.473 | 0.549 | 0.728 | 0.581 | 0.713 | 0.34 | 0.361 | 0.455 | 0.335 | 0.382 | 0.692 | 0.567 | 0.651 | 0.751
NCI-H3122 | 0.611 | 0.564 | 0.645 | 0.566 | 1.23 | 1.1 | 1.3 | 1.1 | 0.507 | 0.395 | 0.343 | 0.415 | 0.46 | 1.01 | 0.972 | 0.787 | 0.83
